Measured values: patent US5270302A, “Derivatives of tetrapeptides as CCK agonists” (priority 1991, dated 1993)
Read-outs that look alike come from different tables or passages of the source. One block for each molecule: values may come before it. *1 amine or outer side, *2 acyl side, *3 side chain or, on linkers, in order; H or OH if unused. Where a SMILES comes first, the peptide text is derived from it. Side-chain parts run from the residue outwards. [ ]: non-standard residue; d: D form. The star is where a group is joined. ξ: configuration not given here. ξαMeW = CC(N)(Cc1c[nH]c2ccccc12)C(=O)O; NMeF = CN[C@@H](Cc1ccccc1)C(=O)O; NH(2-Me-phenyl) = Cc1ccccc1N*; Boc = CC(C)(C)OC(=O)*; CO = O=C([*:1])[*:2]

Legend:
rats [1] = assay: Feeding effect of CCK agonists in food-deprived rats; assay type: in vivo; details: i.p., dose 20 μg/kg, one hour feeding, vehicle 9.40 grams
Experimental: Feeding Effect of CCK Agonists in Rats
Forty male, Sprague-Dawley rats were subjected to a 23 hour food deprivation schedule for four days. On the fifth day, the animals were divided into five equal groups based on their previous (4th day) food intake. […] The amount of food consumed was measured after subtraction of spillage.

guinea pig gallbladder = details: read-out: EC50 for contraction; isolated guinea pig gallbladder, 37° C.; 50% of the compound's own maximal contraction
Experimental: Guinea Pig Gallbladder Contraction
Gallbladders were obtained from male guinea pigs (250-300 gm). The bile was emptied by a small incision and the gallbladder was suspended in an organ bath. The tissue was maintained at 37° C., suspended in Krebs-Ringer buffer (mM: NaCl, 118; KCl, 4.7; CaCl2, 2.5; MgCl2, 1.2; NaH2 PO4, 1.2; NaHCO3, 25; choline chloride, 30 mM; glucose, 11) and bubbled with 95% O2 -5% CO2. Isometric contractions were recorded with a Grass polygraph. Baseline tension was set at 0.3 grams. After equilibration for approximately 30 minutes, CCK-8 (20 nM) was introduced and tensions were recorded. After reaching maximal contractions (about 5 minutes), the drug was washed out by overflow. The CCK-8 addition was repeated twice to ensure constant force of contraction.

mice [2] = assay: Behavioral effect of CCK agonists in mice (suppression of locomotor activity); assay type: in vivo
Description: Behavioral Effect of CCK Agonists in Mice
The animals were placed on a slightly elevated metal grid and restrained by the thumb and forefinger at the level of the shoulders, thus immobilizing their heads. Injections were made with a 30 gauge needle with a "stop" consisting of a piece of tygon tubing to limit penetration of the needle to about 4.5 mm below the surface of the skin. The needle was inserted perpendicular to the skull at a midline point equidistant from each eye and an equal distance posterior from the level of the eyes such that the injection site and the two eyes form an equilateral triangle. The injection volume (5 ul) was expelled smoothly over a period of approximately 1 second.
Immediately after the injections the mice were placed in their cages and allowed a 15 minute recovery period prior to the beginning of behavioral observations.
For the behavioral observations, the mice were placed in clear plastic cages. Each cage measured 19×26×15 cm and contained a 60-tube polypropylene test tube rack place on end in the center of the cage to enhance exploratory activity. Observations were made every 30 seconds for a period of 30 minutes. […] Differences among groups were analyzed by Newman-Kewels analysis and a probability level of p<0.05 was accepted as significant.

mice [3] = assay: Measurement of plasma insulin in mice following treatment with CCK-8 or a CCK agonist; assay type: in vivo; details: tail vein injection, 2 minutes
Experimental: Measurement of Plasma Insulin in Mice Following Treatment With CCK-8 or a CCK Agonist
Male mice, weighing from about 20 to about 30 g each, were used in all experiments. The animals were fed with laboratory lab chow and water ad libitum. CCK-8 or one the CCK agonist compounds of this invention was injected into the tail vein. Two minutes later, the animals were sacrificed and the blood was collected in 1.5 mL heparinized polypropylene tubes. The tubes were centrifuged at 10,000×g for 2 minutes. The insulin levels were determined in the supernatant, i.e., plasma, by radioimmuno assay (RIA) using kits obtained from Radioassay Systems Laboratory (Carson, CA.) or Novo Biolabs (Danbury, Conn.). The results of this assay are shown in Table 3 and are expressed as the percent increase in insulin secretion over insulin secretion observed in mice injected with a saline solution. Each dose was tested in at least six mice and the values presented are averages for the group of mice tested at each dose.

rats [4] = assay: Feeding effects of chronic administration of CCK-8 and CCK agonists in rat (liquid diet); assay type: in vivo; details: ip, 10 nmol/kg, 11 days of testing
Experimental: Feeding Effects of Chronic Administration of CCK-8 and CCK Agonists in Rat
Adult male Sprague-Dawley rats, weighing approximately 250 g, were placed on a restricted diet. Rats were weighed every morning and were allowed access to a liquid diet (Ensure®) for 60 minutes in the morning and 45 minutes in the late afternoon; intakes were recorded every 15 minutes. […] Six to 10 minutes later, the rats were presented with the diet, and intakes were recorded as usual. No injections were administered prior to the PM feeding. After 11 days of testing, half of the animals were sacrificed while the remaining rats were withdrawn from treatment and injected with vehicle for 4 days.

Type-A CCK receptor = molecular target: T1, Type-A CCK receptor (Cavia porcellus, UniProt Q63931); assay: Radioligand binding of [125I]BH-CCK-8 in guinea pig pancreatic membrane preparations; details: guinea pig pancreatic membranes, 37° C., 150 min
T1 construct: Cortical and pancreatic membranes were prepared as described; from tissue; host or cells: guinea pig pancreas membranes
T1 sequence (Q63931 1-430): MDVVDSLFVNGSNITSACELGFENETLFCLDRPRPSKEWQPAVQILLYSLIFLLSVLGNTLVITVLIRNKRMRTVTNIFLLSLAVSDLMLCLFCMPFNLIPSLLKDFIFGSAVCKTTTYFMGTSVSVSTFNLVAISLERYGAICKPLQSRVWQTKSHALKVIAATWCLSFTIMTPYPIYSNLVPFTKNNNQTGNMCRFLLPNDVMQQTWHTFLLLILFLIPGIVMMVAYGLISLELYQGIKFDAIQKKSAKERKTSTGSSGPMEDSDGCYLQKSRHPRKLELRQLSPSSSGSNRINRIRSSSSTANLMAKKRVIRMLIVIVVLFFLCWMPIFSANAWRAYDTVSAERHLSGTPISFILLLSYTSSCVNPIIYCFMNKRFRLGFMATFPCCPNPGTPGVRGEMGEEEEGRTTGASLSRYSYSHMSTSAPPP
How it was run: (§1)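 Membranes came from male guinea pig pancreas (type A) or cerebral cortex (type B) and were resuspended in pH 7.4 HEPES-EGTA-salt buffer containing bestatin and phosphoramidon. Test compounds competed with [125I]BH-CCK-8 in 0.1% BSA: cortex 150 min at 30 °C, pancreas 150 min at 37 °C. Reactions ended by filtration; IC50 from Hill analysis.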

rats [5] = assay: Feeding effects of acute administration of CCK agonists in rats (liquid diet); assay type: in vivo; details: i.p., acute (1 day)
Description: Feeding Effects of Acute Administration of CCK Agonists in Rats
The experimental paradigm used in the above-mentioned chronic feeding studies was employed to establish dose reponses for CCK agonists of this invention on an acute (1 day) basis. Following an 8-day diet acclimation period, the rats were weighed and injected with vehicle. CCK-8 or test compound (see Table 7) at doses ranging from 1-1000 nmol/kg (i.p.). Six to ten minutes later, the rats were presented with the diet and intakes were recorded. No injections were administered prior to the P.M. feeding. Mean A.M. intakes as a percent of control were plotted versus log dose (nm/kg) to establish the dose response curve.

Type-B CCK receptor = molecular target: T2, Type-B CCK receptor (Cavia porcellus, UniProt H0VZC5); assay: Radioligand binding of [125I]BH-CCK-8 in guinea pig cerebral cortical membrane preparations; details: guinea pig cortical membranes, 30° C., 150 minutes
T2 construct: Cortical and pancreatic membranes were prepared as described; from tissue; host or cells: guinea pig cerebral cortex membranes
T2 sequence (H0VZC5 1-426): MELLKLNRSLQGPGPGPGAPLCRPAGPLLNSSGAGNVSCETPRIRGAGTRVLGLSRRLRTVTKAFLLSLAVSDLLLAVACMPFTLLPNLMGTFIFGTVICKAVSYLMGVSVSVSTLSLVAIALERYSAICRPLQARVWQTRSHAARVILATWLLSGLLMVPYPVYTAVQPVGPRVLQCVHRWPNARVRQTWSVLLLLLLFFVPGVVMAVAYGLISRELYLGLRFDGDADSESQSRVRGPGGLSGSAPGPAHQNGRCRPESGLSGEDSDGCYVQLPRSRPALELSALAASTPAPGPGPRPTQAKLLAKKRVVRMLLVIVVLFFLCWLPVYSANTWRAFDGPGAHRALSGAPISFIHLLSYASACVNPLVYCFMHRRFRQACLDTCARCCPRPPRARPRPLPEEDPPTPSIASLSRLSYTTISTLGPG
How it was run: as §1

guinea pig acini = molecular target: T3, guinea pig acini (Cavia porcellus, UniProt Q63931); assay: Amylase release assay in guinea pig pancreatic acini; assay type: cell-based; details: 30 minutes at 37° C., reference CCK-8 3×10^-10 M
T3 sequence (Q63931 1-430): T1 sequence (Q63931 1-430)
Experimental: Protocol for Amylase Release Assay
Guinea Pig Acini Preparation
Pancreas was dissected out and connective tissues and blood vessels were removed. The pancreas was cut into small pieces (2 mm) by a scissor and placed in a 15 mL conical plastic tube containing 2.5 mL of Krebs-Ringer HEPES (KRH) buffer plus 400 units per mL of collagenase. […] The buffer was supplemented with 1% MEM vitamins, 1% MEM amino acids and 0.001% aprotinin (pancreatic basic trypsin inhibitor). […] The supernatant was discarded and 6 mL of the KRH was added to the cell pellet. […] This wash procedure was repeated once. The cell pellet from the last centrifugation step was then resuspended in 15 mL of KRH containing 0.1% BSA. […] The filtrate, containing the acini, was centrifuged at 50×g for 3 minutes. The acini were then resuspended in 5 mL of KRH-BSA buffer for 30 minutes at 37° C. under 100% O2, with a change of fresh buffer at 15 minutes.
After the 30 minutes incubation time, the acini was resuspended in 100 volumes of KRH-BSA buffer, containing 3 μM phosphoramidon and 100 μM bestatin. […] Amylase activity in the supernatant and the cell pellet were separately determined after appropriate dilutions in 0.1% Triton X-100® (a non-ionic detergent available from Sigma Chemical Co.), 20 mM NaH2 PO4, pH 7.4, by Abbott Amylase A-gent® test using the Abbott Bichromatic Analyzer 200.

[6] = read-out: IC50 (nM) 125I-BH-CCK-8 Type-A receptor
[7] = read-out: IC50 (nM) 125I-BH-CCK-8 Type-B receptor

Molecule: CSCC[C@H](NC(=O)[C@H](Cc1ccc(OS(=O)(=O)O)cc1)NC(=O)[C@@H](N)CC(=O)O)C(=O)NCC(=O)N[C@@H](Cc1c[nH]c2ccccc12)C(=O)N[C@@H](CCSC)C(=O)N[C@@H](CC(=O)O)C(=O)N[C@@H](Cc1ccccc1)C(N)=O [CCK-8, Asp-Tyr(SO3 H)-Met-Gly-Trp-Met-Asp-PheNH2]
Mean Food Intake (rats [1]): 6.56 grams
EC50 (guinea pig gallbladder): 0.0059 µM
Minimal Effective Dose, suppression of locomotor activity (mice [2]; ICV administration): 3.0 nmol/mouse
Minimal Effective Dose, suppression of locomotor activity (mice [2]; IP administration): 0.001 µmol/kg
% Increase In Insulin Secretion Versus Saline Control (mice [3]; dose 3 nmole/kg): 65%
% Increase In Insulin Secretion Versus Saline Control (mice [3]; dose 10 nmole/kg): 85%
% Increase In Insulin Secretion Versus Saline Control (mice [3]; dose 30 nmole/kg): 90%
% Increase In Insulin Secretion Versus Saline Control (mice [3]; dose 100 nmole/kg): 70%
AM liquid food intake versus controls (rats [4]): significantly reduced intakes on just the first and last treatment days
body weight gain versus controls (rats [4]): no significant effects on body weight gain

Molecule: Cc1ccccc1NC(=O)NCCCC[C@H](NC(=O)[C@H](Cc1c[nH]c2ccccc12)NC(=O)OC(C)(C)C)C(=O)N[C@@H](CC(=O)O)C(=O)N(C)[C@@H](Cc1ccccc1)C(N)=O [Example 33, t-BOC-Trp-Lys(ε-N-(2-methylphenyl)aminocarbonyl)-Asp-(NMe)PheNH2] (Boc-WK([CO-NH(2-Me-phenyl)])D[NMeF]-NH2)
EC50 (guinea pig gallbladder): 0.01 µM

Molecule: Cc1ccccc1NC(=O)NCCCC[C@H](NC(=O)C(C)(N)Cc1c[nH]c2ccccc12)C(=O)N[C@@H](CC(=O)O)C(=O)N[C@@H](Cc1ccccc1)C(N)=O (stereo partly drawn) [Example 97, D,L-(α-Methyl)Trp-Lys(ε-N-(2-methylphenyl)aminocarbonyl)-Asp-PheNH2] (H-[ξαMeW]K([CO-NH(2-Me-phenyl)])DF-NH2)
IC50 (Type-A CCK receptor; IC50 (nM) 125I-BH-CCK-8 Type-A receptor): 11 nM
ED25, suppression of feeding (liquid diet) (rats [5]): 1.8 nmol/kg
ED50, dose required to decrease mean A.M. food intake by 50% (rats [5]): 9.4 nmol/kg
IC50 (Type-B CCK receptor; IC50 (nM) 125I-BH-CCK-8 Type-B receptor): 2600 nM

Molecule: Cc1ccccc1NC(=O)NCCCC[C@H](NC(=O)C(Cc1c[nH]c2ccccc12)C(N)=O)C(=O)N[C@@H](CC(=O)O)C(=O)N(C)[C@@H](Cc1ccccc1)C(N)=O (stereo partly drawn) [Example 106, (2-Aminocarbonyl-3-(3-indolyl)propionyl)-Lys(ε-N-(2-methylphenyl)aminocarbonyl)-Asp-(NMe)PheNH2]
IC50 (Type-A CCK receptor; [6]): 13 nM
ED25, suppression of feeding (liquid diet) (rats [5]): 6.9 nmol/kg
ED50, dose required to decrease mean A.M. food intake by 50% (rats [5]): 58.5 nmol/kg
IC50 (Type-B CCK receptor; [7]): > 10000 nM

Molecule: CCOC(=O)C(C)(Cc1c[nH]c2ccccc12)C(=O)N[C@@H](CCCCNC(=O)Nc1ccccc1C)C(=O)N[C@@H](CC(=O)O)C(=O)N(C)[C@@H](Cc1ccccc1)C(N)=O (stereo partly drawn) [Example 107, (2-Carboethoxy-2-methyl-3-(3-indolyl)propionyl)-Lys(ε-N-(2-methylphenyl)amino-carbonyl)-Asp-(NMe)PheNH2]
IC50 (Type-A CCK receptor; [6]): 21 nM
ED25, suppression of feeding (liquid diet) (rats [5]): 3.7 nmol/kg
ED50, dose required to decrease mean A.M. food intake by 50% (rats [5]): 26.1 nmol/kg
IC50 (Type-B CCK receptor; [7]): 1400 nM

EC50 (guinea pig acini): 0.003 µM
Molecule: t-BOC-Trp-Nle(6-((2-methylphenyl)aminocarbonyl)oxy)-Asp-(NMe)PheNH2 [Example 114]
